Laboratory results as given in patent US5789431A, “Naphthoquinone antitumor compound and method” (The University of North Carolina at Chapel Hill, priority 1996, dated 1998).
Where two headings read alike, the source gives them in different places.

Tests used:
MDA-MB-435 = assay: in vitro breast cancer cell growth inhibition (NCI screen)
NCI-H23 = assay: in vitro non-small cell lung cancer cell growth inhibition (NCI screen)
UACC-257 = assay: in vitro melanoma cell growth inhibition (NCI screen)
OVCAR-3 = assay: in vitro ovarian cancer cell growth inhibition (NCI screen)
HCT-116 = assay: in vitro colon cancer cell growth inhibition (NCI screen)
MALME-3M = assay: in vitro melanoma cell growth inhibition (NCI screen)
HCT-15 = assay: in vitro colon cancer cell growth inhibition (NCI screen)
MDA-N = assay: in vitro breast cancer cell growth inhibition (NCI screen)
COLO-205 = assay: in vitro colon cancer cell growth inhibition (NCI screen)
MCF-7 = assay: in vitro breast cancer cell growth inhibition (NCI screen)
BT-549 = assay: as above
RPMI-8226 = assay: in vitro leukemia cell growth inhibition (NCI screen)
NCI-H522 = assay: in vitro non-small cell lung cancer cell growth inhibition (NCI screen)
UACC-62 = assay: in vitro melanoma cell growth inhibition (NCI screen)
HL-60(TB) = assay: in vitro leukemia cell growth inhibition (NCI screen)
HOP-92 = assay: in vitro non-small cell lung cancer cell growth inhibition (NCI screen)
M14 = assay: in vitro melanoma cell growth inhibition (NCI screen)
CCRF-CEM = assay: in vitro leukemia cell growth inhibition (NCI screen)
SR = assay: as above
MOLT-4 = assay: as above
SK-OV-3 = assay: in vitro ovarian cancer cell growth inhibition (NCI screen)
SK-MEL-5 = assay: in vitro melanoma cell growth inhibition (NCI screen)
NCI-H266 = assay: in vitro non-small cell lung cancer cell growth inhibition (NCI screen)
human tumor cell lines = assay type: cell-based; details: for GI50: Homo sapiens; for cytotoxicity against tumor cells (in words): cancer cell line panel
SW 620 = assay: in vitro colon cancer cell growth inhibition (NCI screen)
U 251 = assay: in vitro CNS cancer cell growth inhibition (NCI screen)
LOX1MVI = assay: in vitro melanoma cell growth inhibition (NCI screen)
SF-268 = assay: in vitro CNS cancer cell growth inhibition (NCI screen)
HT 29 = assay: in vitro colon cancer cell growth inhibition (NCI screen)
NCI-H460 = assay: in vitro non-small cell lung cancer cell growth inhibition (NCI screen)
OVCAR-8 = assay: in vitro ovarian cancer cell growth inhibition (NCI screen)
786-0 = assay: in vitro renal cancer cell growth inhibition (NCI screen)
DLD-1 = assay: in vitro colon cancer cell growth inhibition (NCI screen)
LXFL 529 = assay: in vitro non-small cell lung cancer cell growth inhibition (NCI screen)
SF-539 = assay: in vitro CNS cancer cell growth inhibition (NCI screen)
K-562 = assay: in vitro leukemia cell growth inhibition (NCI screen)
KM 12 = assay: in vitro colon cancer cell growth inhibition (NCI screen)
RXF-393 = assay: in vitro renal cancer cell growth inhibition (NCI screen)
M19-MEL = assay: in vitro melanoma cell growth inhibition (NCI screen)
IGROV1 = assay: in vitro ovarian cancer cell growth inhibition (NCI screen)
T-47D = assay: in vitro breast cancer cell growth inhibition (NCI screen)
SK-MEL-28 = assay: in vitro melanoma cell growth inhibition (NCI screen)
MCF7/ADR-RES = assay: in vitro breast cancer cell growth inhibition (NCI screen)
ACHN = assay: in vitro renal cancer cell growth inhibition (NCI screen)
PC-3 = assay: in vitro prostate cancer cell growth inhibition (NCI screen)
[1] = non-small cell lung, CNS, melanoma, colon, leukemia, small cell lung, and renal cancer cell lines, read-out: logGI50 values (range over cell lines) (converted)

Structure (SMILES): COc1ccc(-n2c(CCCC(=O)O)nc3c2C(=O)c2ccccc2C3=O)cc1 [Compound 59]
- cytotoxicity log GI50 (MDA-MB-435): -4.58 M
- cytotoxicity log GI50 (NCI-H23): -4.36 M
- cytotoxicity log GI50 (UACC-257): -4.56 M
- cytotoxicity log GI50 (OVCAR-3): -4.48 M
- cytotoxicity log GI50 (HCT-116): -4.44 M
- cytotoxicity log GI50 (MALME-3M): -4.82 M
- cytotoxicity log GI50 (HCT-15): -4.35 M
- cytotoxicity log GI50 (MDA-N): -4.50 M
- cytotoxicity log GI50 (COLO-205): -4.43 M
- cytotoxicity log GI50 (MCF-7): -4.49 M
- cytotoxicity log GI50 (BT-549): -5.06 M
- cytotoxicity log GI50 (RPMI-8226): -4.44 M
- cytotoxicity log GI50 (NCI-H522): -4.59 M
- cytotoxicity log GI50 (UACC-62): -4.63 M
- cytotoxicity log GI50 (HL-60(TB)): -4.51 M
- cytotoxicity log GI50 (HOP-92): -4.69 M
- cytotoxicity log GI50 (M14): -4.81 M
- cytotoxicity log GI50 (CCRF-CEM): -4.44 M

Structure (SMILES): CCn1c(CCl)nc2c1C(=O)c1ccccc1C2=O [Compound 22]
- cytotoxicity log GI50 (SR): -6.40 M
- cytotoxicity log GI50 (MALME-3M): -5.98 M
- cytotoxicity log GI50 (MOLT-4): -6.45 M
- cytotoxicity log GI50 (SK-OV-3): -6.29 M
- cytotoxicity log GI50 (NCI-H522): -6.53 M
- cytotoxicity log GI50 (UACC-62): -5.89 M
- cytotoxicity log GI50 (SK-MEL-5): -6.38 M
- cytotoxicity log GI50 (NCI-H266): -6.65 M
- GI50 (human tumor cell lines; cancer cells, printed as GI50, log scale values, read-out: GI50 values): 0.158 to 1 µM
- cytotoxicity against tumor cells (in words) (human tumor cell lines): highly active against many of the cancer cell types tested
- cytotoxicity log GI50 (CCRF-CEM): -6.76 M

Structure (SMILES): Cc1ccc(Cn2c(C)nc3c2C(=O)c2ccccc2C3=O)cc1 [Compound 17]
- cytotoxicity log GI50 (SW 620): -5.48 M
- cytotoxicity log GI50 (U 251): -5.73 M
- cytotoxicity log GI50 (SR): -6.48 M
- cytotoxicity log GI50 (HCT-116): -6.12 M
- cytotoxicity log GI50 (LOX1MVI): -6.22 M
- cytotoxicity log GI50 (HCT-15): -6.21 M
- cytotoxicity log GI50 (SF-268): -5.46 M
- cytotoxicity log GI50 (HT 29): -5.90 M
- cytotoxicity log GI50 (MOLT-4): -6.19 M
- cytotoxicity log GI50 (NCI-H460): -6.41 M
- cytotoxicity log GI50 (OVCAR-8): -5.52 M
- cytotoxicity log GI50 (786-0): -5.66 M
- cytotoxicity log GI50 (DLD-1): -5.91 M
- cytotoxicity log GI50 (NCI-H522): -5.50 M
- cytotoxicity log GI50 (UACC-62): -5.95 M
- cytotoxicity log GI50 (LXFL 529): -5.76 M
- cytotoxicity log GI50 (HL-60(TB)): -5.72 M
- cytotoxicity log GI50 (SF-539): -5.88 M
- GI50 (human tumor cell lines; [1]): 1 to 10 µM
- cytotoxicity against tumor cells (in words) (human tumor cell lines): highly active against many of the cancer cell types tested
- cytotoxicity log GI50 (CCRF-CEM): -5.70 M
- cytotoxicity log GI50 (K-562): -6.08 M

Structure (SMILES): COc1ccc(Cn2c(C)nc3c2C(=O)c2ccccc2C3=O)cc1 [Compound 18]
- cytotoxicity log GI50 (U 251): -5.20 M
- cytotoxicity log GI50 (SR): -5.84 M
- cytotoxicity log GI50 (HCT-116): -5.43 M
- cytotoxicity log GI50 (LOX1MVI): -5.60 M
- cytotoxicity log GI50 (HCT-15): -5.76 M
- cytotoxicity log GI50 (SF-268): -5.35 M
- cytotoxicity log GI50 (KM 12): -5.27 M
- cytotoxicity log GI50 (HT 29): -5.31 M
- cytotoxicity log GI50 (MOLT-4): -5.59 M
- cytotoxicity log GI50 (NCI-H460): -5.62 M
- cytotoxicity log GI50 (786-0): -5.27 M
- cytotoxicity log GI50 (DLD-1): -5.33 M
- cytotoxicity log GI50 (NCI-H522): -5.22 M
- cytotoxicity log GI50 (UACC-62): -5.34 M
- cytotoxicity log GI50 (LXFL 529): -5.37 M
- cytotoxicity log GI50 (HL-60(TB)): -5.38 M
- cytotoxicity log GI50 (SF-539): -5.42 M
- GI50 (human tumor cell lines; [1]): 1 to 10 µM
- cytotoxicity log GI50 (CCRF-CEM): -5.39 M
- cytotoxicity log GI50 (K-562): -5.49 M

Structure (SMILES): Cc1nc2c(n1Cc1ccc(F)cc1)C(=O)c1ccccc1C2=O [Compound 19]
- cytotoxicity log GI50 (NCI-H23): -4.88 M
- cytotoxicity log GI50 (U 251): -5.18 M
- cytotoxicity log GI50 (SR): -5.37 M
- cytotoxicity log GI50 (RXF-393): -4.83 M
- cytotoxicity log GI50 (OVCAR-3): -4.82 M
- cytotoxicity log GI50 (HCT-116): -5.16 M
- cytotoxicity log GI50 (MALME-3M): -5.05 M
- cytotoxicity log GI50 (LOX1MVI): -5.14 M
- cytotoxicity log GI50 (HCT-15): -5.37 M
- cytotoxicity log GI50 (SF-268): -5.34 M
- cytotoxicity log GI50 (HT 29): -5.03 M
- cytotoxicity log GI50 (MOLT-4): -5.27 M
- cytotoxicity log GI50 (NCI-H460): -5.39 M
- cytotoxicity log GI50 (M19-MEL): -5.44 M
- cytotoxicity log GI50 (786-0): -4.88 M
- cytotoxicity log GI50 (NCI-H522): -4.97 M
- cytotoxicity log GI50 (UACC-62): -5.28 M
- cytotoxicity log GI50 (LXFL 529): -4.87 M
- cytotoxicity log GI50 (SK-MEL-5): -4.99 M
- cytotoxicity log GI50 (HL-60(TB)): -5.26 M
- cytotoxicity log GI50 (SF-539): -5.16 M
- GI50 (human tumor cell lines; [1]): 1 to 10 µM
- cytotoxicity log GI50 (CCRF-CEM): -4.98 M
- cytotoxicity log GI50 (K-562): -5.25 M

Structure (SMILES): COc1cc(OC)cc(C(=O)NC2=C(Cl)C(=O)c3ccccc3C2=O)c1 [Compound 2h]
- cytotoxicity log GI50 (SW 620): -6.24 M
- cytotoxicity log GI50 (SR): -6.33 M
- cytotoxicity log GI50 (IGROV1): -5.86 M
- cytotoxicity log GI50 (T-47D): -5.85 M
- cytotoxicity log GI50 (RXF-393): -6.28 M
- cytotoxicity log GI50 (HCT-116): -6.35 M
- cytotoxicity log GI50 (SK-MEL-28): -5.85 M
- cytotoxicity log GI50 (HCT-15): -6.38 M
- cytotoxicity log GI50 (KM 12): -5.92 M
- cytotoxicity log GI50 (MCF7/ADR-RES): -5.83 M
- cytotoxicity log GI50 (BT-549): -5.81 M
- cytotoxicity log GI50 (RPMI-8226): -6.31 M
- cytotoxicity log GI50 (NCI-H522): -6.49 M
- cytotoxicity log GI50 (UACC-62): -6.82 M
- cytotoxicity log GI50 (ACHN): -6.39 M
- cytotoxicity log GI50 (SK-MEL-5): -5.89 M
- cytotoxicity log GI50 (HL-60(TB)): -7.04 M
- cytotoxicity log GI50 (M14): -6.26 M
- cytotoxicity log GI50 (PC-3): -6.24 M
- cytotoxicity against tumor cells (in words) (human tumor cell lines): similarly potent cytotoxic activity
- cytotoxicity log GI50 (CCRF-CEM): -6.70 M
- cytotoxicity log GI50 (K-562): -6.39 M

Structure (SMILES): CCn1c(-c2ccc(F)cc2)nc2c1C(=O)c1ccccc1C2=O [Compound 26]
- cytotoxicity log GI50 (RXF-393): -4.27 M
- cytotoxicity log GI50 (OVCAR-3): -4.47 M
- cytotoxicity log GI50 (MALME-3M): -4.35 M
- cytotoxicity log GI50 (SK-OV-3): -4.68 M
- cytotoxicity log GI50 (M14): -4.15 M
- GI50 (human tumor cell lines; cancer cell panel, general / most cell lines, read-out: logGI50 values in the cancer cell line panel (converted)): ~10 µM
